Experimental data taken from BindingDB's records for doi:10.1096/fj.02-0026fje (Chul, 2002).

Experiments:
[1] = target: T1, 17-beta-hydroxysteroid dehydrogenase type 1 (Homo sapiens, UniProt P14061); assay: Enzyme Inhibition on the Conversion of E2 to E1 by 17beta-HSD1; conditions: pH 7.5; 37 °C
T1 sequence (P14061 whole entry): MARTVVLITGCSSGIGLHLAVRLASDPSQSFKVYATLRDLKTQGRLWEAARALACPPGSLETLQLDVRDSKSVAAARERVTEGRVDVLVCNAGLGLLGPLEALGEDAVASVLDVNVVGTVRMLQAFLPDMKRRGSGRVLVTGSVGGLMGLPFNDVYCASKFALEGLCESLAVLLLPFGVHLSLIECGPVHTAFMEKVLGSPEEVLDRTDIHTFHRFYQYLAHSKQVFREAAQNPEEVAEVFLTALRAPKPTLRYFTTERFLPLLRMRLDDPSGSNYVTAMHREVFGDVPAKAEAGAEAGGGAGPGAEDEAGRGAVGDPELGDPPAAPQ
Text: For steady-state kinetic study of hybrid inhibitors, a Fluorolog 3 instrument was used to monitor the fluorescent signal of NADPH formed during estradiol oxidation, through which the substrate conversion is monitored. The excitation wavelength was 340 nm, and the emission wavelength was 460 nm. […] Ki was further determined by a plot of Km vs. the inhibitor concentration.

[2] = target: T1, 17-beta-hydroxysteroid dehydrogenase type 1; assay: Enzymatic Assay (Inhibition of Type 1 17beta-HSD); conditions: pH 7.4; 37 °C
Experimental: The enzymatic reaction was performed in the reaction buffer containing substrate, [14C]-estrone, and the test inhibitors. After the reaction, radiolabeled steroids were extracted from the reaction mixture, and solvent was evaporated to dryness. Steroids were dissolved and separated on TLC plates. Radioactivity signals were detected and quantified using a PhosphoImager (Sunny Vale, CA). The percentage of transformation of [14C]-E1 into [14C]-E2 was calculated. The IC50 values were calculated using an unweighted iterative least-squares method for four-parameter logistic curve fitting (DE50 program, CHUL Research Center, Quebec).

Row | Ki [1] [nM] | IC50 [2] [nM] | SMILES
1 | 3 | 52 | C[C@]12CC[C@@H]3c4ccc(O)cc4CC[C@H]3[C@@H]1CC(CCCCCCCCC(=O)OCC1OC(n3cnc4c(N)ncnc43)C(O)C1O)[C@@H]2O (stereo not given in full) [EM1745]
2 | – | 93 | C[C@]12CC[C@@H]3c4ccc(O)cc4CC[C@H]3[C@@H]1CC(CCCCCCCC(=O)OCC1OC(n3cnc4c(N)ncnc43)C(O)C1O)[C@@H]2O (stereo partly drawn) [[5-(6-amino-9H-purin-9-yl)-3,4-dihydroxyoxolan-2-yl]methyl 8-[(1S,10R,11S,14S,15S)-5,14-dihydroxy-15-methyltetracyclo[8.7.0.0^{2,7}.0^{11,15}]heptadeca-2,4,6-trien-13-yl]octanoate]
3 | – | 140 | C[C@]12CC[C@@H]3c4ccc(O)cc4CC[C@H]3[C@@H]1CC(CCCCCCCCCC(=O)OCC1OC(n3cnc4c(N)ncnc43)C(O)C1O)[C@@H]2O (stereo partly drawn) [[5-(6-amino-9H-purin-9-yl)-3,4-dihydroxyoxolan-2-yl]methyl 10-[(1S,10R,11S,14S,15S)-5,14-dihydroxy-15-methyltetracyclo[8.7.0.0^{2,7}.0^{11,15}]heptadeca-2,4,6-trien-13-yl]decanoate]
4 | 250000 | – | CCCCCCCCC(=O)OCC1OC(n2cnc3c(N)ncnc32)C(O)C1O (stereo not given) [[5-(6-amino-9H-purin-9-yl)-3,4-dihydroxyoxolan-2-yl]methyl nonanoate]
